Measured values reported in patent publication US20240041902A1, “COMPOSITIONS AND METHODS FOR THE TREATMENT OF UROTHELIAL CANCER” (The State of Israel, Ministry of Agriculture & Rural …, priority 2020, published 2024).
Where two headings read alike, the source gives them in different places.

What was measured:
Assay type in all cases: cell-based, human
T24 cells [1] = assay: Bliss independence drug interaction model on T24 cell viability; settings: for inhibition at 1 µg/mL / inhibition at 2 µg/mL / inhibition at 3 µg/mL / inhibition at 5 µg/mL / inhibition at 7.5 µg/mL / inhibition at 10 µg/mL / inhibition at 12.5 µg/mL: Homo sapiens, T-24
Protocol: (§1) Cell proliferation assay—XTT assay was carried out as described in [34], on T24 and HTB-9 cells. 1*10^4 cells/well were seeded in 96-wells plates, methanol was used as a vehicle control at the same concentration as the treatments. Mitomycin-C (MMC) was used as positive control. Cell viability was calculated relative to the vehicle control after subtracting blank.
Analysis of combined drug effects—Drug synergy was determined by the Bliss independence drug interaction model as described in [31], on T24 cells.

T24 cells [2] = assay: Cell migration scratch assay; settings: sub-lethal: CBD 10, CBC+THC 8.6+1.4, MMC 4, CBC 10, THC 10 μg/mL; vs control
Protocol: The scratch area, indicated by the cells that migrated to the scratch at time x, was calculated as the percentage of the scratch area at time x from time 0: […]

T24 cells [3] = assay: XTT viability of T24 cells with or without CB1/CB2 inverse agonist, TRPV1/TRPV2 antagonist or TRPA1 blocker; settings: CBD 13.8 μg/mL; inverse agonist 10 μM
Protocol: For quantification of phytocannabinoids by analytical HPLC, the standards were dissolved in methanol at various concentrations from 0-25 μg/mL.
as §1

CB1 receptor (CNR1) = assay: qRT-PCR of CB1 receptor RNA level in T24 cells; settings: 6 hours; CBC+THC 11.2+1.8 μg/mL or CBD 9.2 μg/mL; relative to control, HPRT1 reference
Protocol: (§2) Quantitative real-time (qRT) PCR—qRT PCR was carried out as described in [34]. Briefly, T24 cells were treated with cannabis compounds or methanol as a vehicle control for 6 h. Cells were then harvested and total RNA was isolated and reverse-transcribed. The expression of each target gene was normalized to the expression of Hypoxanthine Phosphoribosyltransferase 1 (HPRT1; geneID 3251) mRNA as the 2^−ΔΔCt and is presented as the ratio of the target gene to HPRT1 mRNA, expressed as 2^−ΔCt, where Ct is the threshold cycle and ΔCt=Ct Target gene—Ct HPRT1. Experiments were repeated three times. The primers were: for CB1 (CNR1; geneID 1268) forward 5′-[…]-3′ (SEQ ID NO: 1) and reverse 5′-[…]-3′ (SEQ ID NO: 2); for CB2 (CNR2; geneID 1269) forward 5′-[…]-3′ (SEQ ID NO: 3) and reverse 5′-[…]-3′ (SEQ ID NO: 4).

CB2 receptor (CNR2) = assay: qRT-PCR of CB2 receptor RNA level in T24 cells; settings: 6 hours; CBC+THC 11.2+1.8 μg/mL or CBD 9.2 μg/mL; relative to control, HPRT1 reference
Protocol: as §2

T24 cells [4] = assay: Cell cycle analysis (PI staining, FACS); settings: 24 hours; CBD 15 μg/mL; insignificant increase, control 17.4%
Protocol: For cell cycle analysis, cells were seeded in 6-wells culture plates at a concentration of 5×10^5 cells per well in McCoy (for T24 cells). The following day, media was replaced with new media containing treatments or methanol control. Cells were then incubated for 24 h at 37° C. in a humidified 5% CO2, 95% air atmosphere. Following 24 h of incubation, media was replaced with new media containing treatment or methanol control. Cells from each well were then harvested and collected separately and centrifuged for 2 min at 900 g. The cell pellet was washed once with 1 mL of PBS and fixed with 70% cold ethanol at 4° C. for at least 1 h. The fixed cells were pelleted out and washed twice with 1 mL of PBS. The cell pellet was then stained by re-suspending in 250 μL of PI solution (50 μg/mL) containing RNase A (100 μg/mL) for 30 min in the dark. Following, 200 μL of PBS were added to each tube and cells were analyzed using FACS.
Cell proliferation assay—XTT assay was carried on T24 and HTB-9 cells. 1×10^4 cells/well were seeded in 96-well plates. […] MMC was used as a positive control. XTT reagent (2,3,-bis (2-methoxy-4-nitro-5-sulfophenyl)-5-[(phenylamino)-carbonyl]-2H-tetrazolium inner salt) was added for 2 h at 37° C. in a humidified atmosphere of 5% CO2 to 95% air. Absorbance was recorded by a Synergy 111 hybrid reader photometer (BioTek) at 490 nm with 650 nm of reference wavelength. Cell survival (% r, viability) was estimated using the equation: % cell survival=(A490−A650) of treatment/(A490−A650) of solvent control×100. A490 and A650 are the absorbencies of the XTT colorimetric reaction. […] Apoptosis assay and cell cycle analysis—T24 cells were treated with cannabis compounds or with methanol as vehicle control. The cell cycle was determined at 24 hours and apoptosis was determined at 48 hours following treatment. Staining and detection followed the manufacturer's instructions. […] Then 200 μL of PBS was added to each tube and the cells were analyzed using FACS.

T24 cells [5] = assay: Apoptosis assay (Annexin V-FITC and PI, FACS); settings: 48 hours; CBC+THC 17.2+2.8, CBD 15, MMC 8 μg/mL; control 46.2%
Protocol: Apoptosis assay and cell cycle analysis—T24 cells were treated with cannabis compounds or with methanol as a vehicle control. Cell cycle was determined at 24 h and apoptosis was determined at 48 h post-treatment. Staining and detection followed manufacturer instructions. Briefly, for the apoptosis assay, the MEBCYTO Apoptosis Kit with Annexin V-FITC and PI (MBL, Enco, 4700) was used. Cells were seeded in culture 6-wells plates, at density of 5×10^5 cells per well in McCoy's 5A (for T24 a cells) or in RPMI (for HTB-9 cells). The following day, media was replaced with new media containing treatment or methanol control. Cells were then incubated for 24 or 48 h at 37° C. in a humidified 5% CO2 95% air atmosphere. Following incubation, cells were harvested and collected separately. Tubes were centrifuged for 2 min at 900 g and cell pellets were resuspended and washed twice with 1 mL of PBS. The cells in each sample were resuspended in 85 μL of Annexin binding buffer. Cells were stained using 10 μL of Annexin V-FITC solution and 5 μL of propidium iodide (PI) working solution followed by 15 min incubation in the dark at room temperature. Then 400 μL of Annexin V binding buffer were added to each tube and flow cytometry was performed using a FORTESA flow cytometer (FACS). Cells were considered to be apoptotic if they were Annexin V+/PI− (early apoptotic) or Annexin V+/PI+ (late apoptotic). Live cells were defined as Annexin V−/PI−, and Annexin V−/PI+ as necrotic.
Cell proliferation assay—XTT assay was carried on T24 and HTB-9 cells. 1×10^4 cells/well were seeded in 96-well plates. […] MMC was used as a positive control. […] Absorbance was recorded by a Synergy 111 hybrid reader photometer (BioTek) at 490 nm with 650 nm of reference wavelength. […] The cell cycle was determined at 24 hours and apoptosis was determined at 48 hours following treatment. […] Then 200 μL of PBS was added to each tube and the cells were analyzed using FACS.

T24 cells [6] = assay: Cytoskeleton (F-actin) staining, confocal; settings: 24 hours; CBC+THC 8.6+1.4, CBD 10 μg/mL
Protocol: Cytoskeleton staining—T24 cell were seeded on glass bottom cell culture dishes and fixed with 3.7% formaldehyde solution and permeabilized with 0.1% Triton X-100 at room temperature. Fixed cells were blocked in Phosphate Buffered Saline (PBS) containing 1% bovine serum albumin. For actin and nuclear staining cells were incubated with EasyProbes ActinRed 555 Stain, and Hoechst, respectively. Image acquisition was effected using a Leica SP8 laser scanning microscope (Wetzlar, Germany), equipped with a 405 and 552 nm solid state lasers, HCX PL APO CS 10×/0.40 or HC PL APO CS 60×/1.2 water immersion objectives (Leica, Wetzlar, Germany) and Leica Application Suite X software (Wetzlar, Germany). Hoechst and ActinRed 555 emission signals were detected with PMT and HyD (hybrid) detectors in ranges of 415-490 and 565-660 nm, respectively. At least 3 images were captured from each slide, and experiments were repeated 4 times.

CCCCCc1cc(O)c2c(c1)OC(C)(CCC=C(C)C)C=C2 (stereo not drawn) [CBC, Cannabichromene]
Calculated (expected) value of cell survival inhibition (T24 cells [1]; CBC 3.5 + THC 0 μg/ml): −0.2617
Delta between observed and experimental values calculated according to Bliss model (T24 cells [1]; CBC 3.5 + THC 0 μg/ml): 1.26E−10
Experimental (observed) value of cell survival inhibition (T24 cells [1]; CBC 3.5 + THC 0 μg/ml): −0.2617
Calculated (expected) value of cell survival inhibition (T24 cells [1]; CBC 5.5 + THC 0 μg/ml): 0.003989
Delta between observed and experimental values calculated according to Bliss model (T24 cells [1]; CBC 5.5 + THC 0 μg/ml): 9.96E−11
Experimental (observed) value of cell survival inhibition (T24 cells [1]; CBC 5.5 + THC 0 μg/ml): 0.003989
Calculated (expected) value of cell survival inhibition (T24 cells [1]; CBC 7.5 + THC 0 μg/ml): −0.05563
Delta between observed and experimental values calculated according to Bliss model (T24 cells [1]; CBC 7.5 + THC 0 μg/ml): 1.06E−10
Experimental (observed) value of cell survival inhibition (T24 cells [1]; CBC 7.5 + THC 0 μg/ml): −0.05563
Calculated (expected) value of cell survival inhibition (T24 cells [1]; CBC 9.5 + THC 0 μg/ml): −0.061
Delta between observed and experimental values calculated according to Bliss model (T24 cells [1]; CBC 9.5 + THC 0 μg/ml): 1.06E−10
Experimental (observed) value of cell survival inhibition (T24 cells [1]; CBC 9.5 + THC 0 μg/ml): −0.061
Calculated (expected) value of cell survival inhibition (T24 cells [1]; CBC 11.5 + THC 0 μg/ml): 0.2028
Delta between observed and experimental values calculated according to Bliss model (T24 cells [1]; CBC 11.5 + THC 0 μg/ml): 7.97E−11
Experimental (observed) value of cell survival inhibition (T24 cells [1]; CBC 11.5 + THC 0 μg/ml): 0.2028
Calculated (expected) value of cell survival inhibition (T24 cells [1]; CBC 13.5 + THC 0 μg/ml): 0.5088
Delta between observed and experimental values calculated according to Bliss model (T24 cells [1]; CBC 13.5 + THC 0 μg/ml): 4.91E−11
Experimental (observed) value of cell survival inhibition (T24 cells [1]; CBC 13.5 + THC 0 μg/ml): 0.5088
cell migration into the scratch (T24 cells [2]): reduced cell migration to a lesser extent than treatment with CBC+THC

C=C(C)[C@@H]1CCC(C)=C[C@H]1c1c(O)cc(CCCCC)cc1O [CBD, Cannabidiol]
effect of CB1 and CB2 inverse agonists on CBD cytotoxicity (T24 cells [3]): Only CB2 inverse agonist completely abolished cytotoxicity
CB1 receptor RNA level induction (CB1 receptor (CNR1)): 1.35 fold
CB2 receptor RNA level induction (CB2 receptor (CNR2)): 2.32 fold
G2/M-phase cells (T24 cells [4]): 38.3%
cell apoptosis (T24 cells [5]): 81.7%
cell migration into the scratch (T24 cells [2]): marked and significant reduction in the ability of the cells to migrate into the scratch
F-actin filaments in the cell periphery (T24 cells [6]): induced accumulation of F-actin filaments in the cell periphery

CCCCCc1cc(O)c2c(c1)OC(C)(C)[C@@H]1CCC(C)=C[C@@H]21 [THC, Tetrahydrocannabinol]
Delta between observed and experimental values calculated according to Bliss model (T24 cells [1]; CBC 0 + THC 1 μg/ml): 0
Delta between observed and experimental values calculated according to Bliss model (T24 cells [1]; CBC 0 + THC 2 μg/ml): 0
Delta between observed and experimental values calculated according to Bliss model (T24 cells [1]; CBC 0 + THC 3 μg/ml): 0
Delta between observed and experimental values calculated according to Bliss model (T24 cells [1]; CBC 0 + THC 5 μg/ml): 0
Delta between observed and experimental values calculated according to Bliss model (T24 cells [1]; CBC 0 + THC 7.5 μg/ml): 0
Delta between observed and experimental values calculated according to Bliss model (T24 cells [1]; CBC 0 + THC 10 μg/ml): 0
Delta between observed and experimental values calculated according to Bliss model (T24 cells [1]; CBC 0 + THC 12.5 μg/ml): 0
inhibition at 1 µg/mL (T24 cells [1]; CBC 0 + THC 1 μg/ml, read-out: Calculated (expected) value of cell survival inhibition): -1.14%
inhibition at 1 µg/mL (T24 cells [1]; CBC 0 + THC 1 μg/ml, read-out: Experimental (observed) value of cell survival inhibition): -1.14%
inhibition at 2 µg/mL (T24 cells [1]; CBC 0 + THC 2 μg/ml, read-out: Calculated (expected) value of cell survival inhibition): -3.21%
inhibition at 2 µg/mL (T24 cells [1]; CBC 0 + THC 2 μg/ml, read-out: Experimental (observed) value of cell survival inhibition): -3.21%
inhibition at 3 µg/mL (T24 cells [1]; CBC 0 + THC 3 μg/ml, read-out: Calculated (expected) value of cell survival inhibition): -1.37%
inhibition at 3 µg/mL (T24 cells [1]; CBC 0 + THC 3 μg/ml, read-out: Experimental (observed) value of cell survival inhibition): -1.37%
inhibition at 5 µg/mL (T24 cells [1]; CBC 0 + THC 5 μg/ml, read-out: Calculated (expected) value of cell survival inhibition): 4.88%
inhibition at 5 µg/mL (T24 cells [1]; CBC 0 + THC 5 μg/ml, read-out: Experimental (observed) value of cell survival inhibition): 4.88%
inhibition at 7.5 µg/mL (T24 cells [1]; CBC 0 + THC 7.5 μg/ml, read-out: Calculated (expected) value of cell survival inhibition): -1.83%
inhibition at 7.5 µg/mL (T24 cells [1]; CBC 0 + THC 7.5 μg/ml, read-out: Experimental (observed) value of cell survival inhibition): -1.83%
inhibition at 10 µg/mL (T24 cells [1]; CBC 0 + THC 10 μg/ml, read-out: Calculated (expected) value of cell survival inhibition): 4.23%
inhibition at 10 µg/mL (T24 cells [1]; CBC 0 + THC 10 μg/ml, read-out: Experimental (observed) value of cell survival inhibition): 4.23%
inhibition at 12.5 µg/mL (T24 cells [1]; CBC 0 + THC 12.5 μg/ml, read-out: Calculated (expected) value of cell survival inhibition): 27%
inhibition at 12.5 µg/mL (T24 cells [1]; CBC 0 + THC 12.5 μg/ml, read-out: Experimental (observed) value of cell survival inhibition): 27%
cell migration into the scratch (T24 cells [2]): had no effect on cell migration
